Data from ChEMBL document CHEMBL1201862, “PubChem BioAssay data set” (2004).
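Dose response: 5 concentrations. Exposure: 48 h. Format: 96-well plates. Endpoint: linear interpolation; highest concentration if not reached. Abbreviation: GI50, concentration required for 50% inhibition of growth.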 Active and inactive are the calls of the source. No stated cut-off is given here; in the data, active = GI50 up to about 1.1 µM and inactive = higher.

Key:
Test in all cases: inhibition of tumour cell growth, NCI panel, 48 h
[1] = tested on: KM12
[2] = tested on: OVCAR-8
[3] = tested on: EKVX
[4] = tested on: IGROV-1
[5] = tested on: SF-295
[6] = tested on: U-251
[7] = tested on: SK-OV-3
[8] = tested on: 786-0
[9] = tested on: CAKI-1
[10] = tested on: HCC 2998
[11] = tested on: ACHN
[12] = tested on: OVCAR-5
[13] = tested on: SNB-19
[14] = tested on: A549
[15] = tested on: SK-MEL-5
[16] = tested on: SF-539
[17] = tested on: TK-10
[18] = tested on: HOP-62
[19] = tested on: RPMI-8226

With `CCOC(=O)C1Cc2[nH]c3ccccc3c2C(C)C1C` (configuration not stated) the GI50 [1] was 17 µM (inactive), the GI50 [2] was 3.55 µM (inactive) and the GI50 [3] was 10.8 µM (inactive). For the same molecule, the GI50 [4] was 15.3 µM (inactive), the GI50 [5] was 19.4 µM (inactive) and the GI50 [6] was 18.5 µM (inactive). The GI50 [7] was 18.9 µM (inactive), the GI50 [8] was 14.6 µM (inactive) and the GI50 [9] was 16.4 µM (inactive). For the same molecule, the GI50 [10] was > 10 µM (inactive), the GI50 [11] was 13.7 µM (inactive) and the GI50 [12] was 17 µM (inactive). The GI50 [13] was 17.7 µM (inactive), the GI50 [14] was 14.1 µM (inactive) and the GI50 [15] was 14 µM (inactive). For the same molecule, the GI50 [16] was 16.5 µM (inactive) and the GI50 [17] was 30 µM (inactive).
In the case of `CC(=O)OCCOCNC(=S)N/N=C/c1ccc(Br)s1`, the GI50 [18] is reported as > 100 µM (inactive), the GI50 [1] is reported as > 100 µM (inactive) and the GI50 [2] is reported as > 100 µM (inactive). The GI50 [3] was > 36.2 µM (inactive), the GI50 [4] was > 100 µM (inactive) and the GI50 [5] was > 76 µM (inactive). For the same molecule, the GI50 [6] was > 95.3 µM (inactive), the GI50 [7] was > 100 µM (inactive) and the GI50 [8] was > 76.6 µM (inactive). For the same molecule, the GI50 [10] was > 100 µM (inactive), the GI50 [11] was > 100 µM (inactive) and the GI50 [12] was > 100 µM (inactive). For the same molecule, the GI50 [13] was > 100 µM (inactive), the GI50 [14] was > 88.7 µM (inactive) and the GI50 [15] was > 100 µM (inactive). For the same molecule, the GI50 [19] was 5.08 µM (inactive), the GI50 [16] was > 100 µM (inactive) and the GI50 [17] was > 100 µM (inactive).
With `COc1ccc(OC)c2c1C=CC(Br)=CC2` the GI50 [18] was 0.269 µM (active), the GI50 [1] was 0.309 µM (active) and the GI50 [2] was 0.43 µM (active). The GI50 [3] was 0.309 µM (active), the GI50 [4] was 0.279 µM (active) and the GI50 [5] was 0.16 µM (active). The GI50 [6] was 0.43 µM (active), the GI50 [7] was 0.0582 µM (active) and the GI50 [8] was 0.193 µM (active). For the same molecule, the GI50 [9] was 0.269 µM (active), the GI50 [10] was 0.195 µM (active) and the GI50 [11] was 0.312 µM (active). The GI50 [13] was 0.611 µM (active), the GI50 [14] was 0.303 µM (active) and the GI50 [15] was 0.216 µM (active). For the same molecule, the GI50 [19] was 0.162 µM (active), the GI50 [16] was 0.653 µM (active) and the GI50 [17] was 0.292 µM (active).
For `CCOC(=O)CNc1nc(=O)c2c(=O)oc(Cl)cc2o1`, the GI50 [18] was 25.4 µM (inactive), the GI50 [1] was 22.1 µM (inactive) and the GI50 [2] was 11.2 µM (inactive). The GI50 [3] was 16.1 µM (inactive), the GI50 [4] was 10.1 µM (inactive) and the GI50 [5] was 25 µM (inactive). The GI50 [6] was 24.8 µM (inactive), the GI50 [7] was > 100 µM (inactive) and the GI50 [8] was 10.2 µM (inactive). For the same molecule, the GI50 [9] was 12.9 µM (inactive), the GI50 [10] was 15.6 µM (inactive) and the GI50 [11] was 13.5 µM (inactive). For the same molecule, the GI50 [12] was 18.5 µM (inactive), the GI50 [13] was 33.3 µM (inactive) and the GI50 [14] was 18.3 µM (inactive). The GI50 [15] was 27.1 µM (inactive), the GI50 [16] was 6.79 µM (inactive) and the GI50 [17] was 13.6 µM (inactive).
In the case of `CC(=O)NC(CCCNCc1ccccc1)C(=O)NCc1ccccc1` (configuration not stated), the GI50 [18] is reported as > 100 µM (inactive), the GI50 [1] is reported as > 100 µM (inactive) and the GI50 [2] is reported as > 100 µM (inactive). For the same molecule, the GI50 [3] was > 100 µM (inactive), the GI50 [4] was > 100 µM (inactive) and the GI50 [5] was > 100 µM (inactive). For the same molecule, the GI50 [6] was > 100 µM (inactive), the GI50 [7] was > 100 µM (inactive) and the GI50 [8] was > 100 µM (inactive). The GI50 [9] was > 100 µM (inactive), the GI50 [10] was > 100 µM (inactive) and the GI50 [11] was > 100 µM (inactive). For the same molecule, the GI50 [12] was > 100 µM (inactive), the GI50 [13] was > 100 µM (inactive) and the GI50 [14] was > 100 µM (inactive). For the same molecule, the GI50 [15] was > 100 µM (inactive), the GI50 [19] was > 100 µM (inactive) and the GI50 [16] was > 100 µM (inactive). The GI50 [17] was > 100 µM (inactive).
With `O=S(=O)(O)c1cccc2c(/N=N/c3c(O)ccc4ccccc34)cccc12` the GI50 [18] was > 100 µM (inactive), the GI50 [1] was > 100 µM (inactive) and the GI50 [2] was > 100 µM (inactive). For the same molecule, the GI50 [3] was > 100 µM (inactive), the GI50 [4] was > 100 µM (inactive) and the GI50 [5] was > 100 µM (inactive). The GI50 [6] was > 100 µM (inactive), the GI50 [7] was > 100 µM (inactive) and the GI50 [8] was > 100 µM (inactive). The GI50 [9] was > 100 µM (inactive), the GI50 [11] was > 100 µM (inactive) and the GI50 [12] was > 100 µM (inactive). The GI50 [13] was > 100 µM (inactive), the GI50 [14] was > 100 µM (inactive) and the GI50 [15] was 46.2 µM (inactive). For the same molecule, the GI50 [19] was > 100 µM (inactive) and the GI50 [17] was > 100 µM (inactive).
